PubChem BioAssay AID1918958 (Molecular Pharmacology Branch, DTP, NCI, 2023)

Tested on: NCI-H196 complex spheroid viability
Assay: Anticancer human tumor NCI-H196 cell line growth inhibition [LSD1];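 note: spheroids exposed to agents for 7 days before readout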;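 for viability, T/C: 100% = DMSO vehicle control viability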
Conditions: for IC50: curve of first compound; for viability, T/C: stronger effect = lower value
Summary of the method: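 Multicellular complex spheroids of tumor cells with human endothelial cells (HUVEC) and mesenchymal stem cells; the LSD1 inhibitor iadademstat was combined with standard-of-care or investigational agents. Top concentration at or near clinical Cmax, half-log dilutions; final DMSO ≤0.25%.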

[1] = second compound 0.1 µM, first compound 0.0316 µM
[2] = second compound 0.1 µM, first compound 0.1 µM
[3] = second compound 0.1 µM, first compound 0.316 µM
[4] = second compound 0.1 µM, first compound 1 µM
[5] = second compound 0.1 µM, first compound 3.16 µM
[6] = second compound 0.1 µM, first compound 10 µM
[7] = second compound 0.316 µM, first compound 0.0316 µM
[8] = second compound 0.316 µM, first compound 0.1 µM
[9] = second compound 0.316 µM, first compound 0.316 µM
[10] = second compound 0.316 µM, first compound 1 µM
[11] = second compound 0.316 µM, first compound 3.16 µM
[12] = second compound 0.316 µM, first compound 10 µM
[13] = second compound 1 µM, first compound 0.0316 µM
[14] = second compound 1 µM, first compound 0.1 µM
[15] = second compound 1 µM, first compound 0.316 µM
[16] = second compound 1 µM, first compound 1 µM
[17] = second compound 1 µM, first compound 3.16 µM
[18] = second compound 1 µM, first compound 10 µM
[19] = second compound 3.16 µM, first compound 0.0316 µM
[20] = second compound 3.16 µM, first compound 0.1 µM
[21] = second compound 3.16 µM, first compound 0.316 µM
[22] = second compound 3.16 µM, first compound 1 µM
[23] = second compound 3.16 µM, first compound 3.16 µM
[24] = second compound 3.16 µM, first compound 10 µM
[25] = second compound 10 µM, first compound 0.0316 µM
[26] = second compound 10 µM, first compound 0.1 µM
[27] = second compound 10 µM, first compound 0.316 µM
[28] = second compound 10 µM, first compound 1 µM
[29] = second compound 10 µM, first compound 3.16 µM
[30] = second compound 10 µM, first compound 10 µM
[31] = second compound 0.1 µM, first compound 0.00316 µM
[32] = second compound 0.1 µM, first compound 0.01 µM
[33] = second compound 0.316 µM, first compound 0.00316 µM
[34] = second compound 0.316 µM, first compound 0.01 µM
[35] = second compound 1 µM, first compound 0.00316 µM
[36] = second compound 1 µM, first compound 0.01 µM
[37] = second compound 3.16 µM, first compound 0.00316 µM
[38] = second compound 3.16 µM, first compound 0.01 µM
[39] = second compound 10 µM, first compound 0.00316 µM
[40] = second compound 10 µM, first compound 0.01 µM

Structure (SMILES) | IC50 (second compound 0.1 µM) [nM] | IC50 (second compound 0.316 µM) [nM] | IC50 (second compound 1 µM) [nM] | IC50 (second compound 3.16 µM) [nM] | IC50 (second compound 10 µM) [nM] | viability, T/C [1] [%] | viability, T/C [2] [%] | viability, T/C [3] [%] | viability, T/C [4] [%] | viability, T/C [7] [%] | viability, T/C [8] [%] | viability, T/C [9] [%] | viability, T/C [10] [%] | viability, T/C [13] [%] | viability, T/C [14] [%] | viability, T/C [15] [%] | viability, T/C [16] [%] | viability, T/C [19] [%] | viability, T/C [20] [%] | viability, T/C [21] [%] | other results
CC(C)c1c(-c2ccccc2)nc2c(C#N)c[nH]n2c1=O + NC1CC1c1ccc(-c2cccc(O)c2)cc1 | > 10000 | > 10000 | > 10000 | > 10000 | > 10000 | 87.2 | 96.8 | 88.4 | 83.5 | 92.7 | 102 | 98 | 89.4 | 96.7 | 95 | 91.1 | 96.7 | 101 | 88.5 | 95.3 | viability, T/C [5]: 93.1%; viability, T/C [6]: 90.1%; viability, T/C [11]: 94.6%; viability, T/C [12]: 88.2%; viability, T/C [17]: 104%; viability, T/C [18]: 79.8%; viability, T/C [22]: 96.2%; viability, T/C [23]: 91.6%; viability, T/C [24]: 94.1%; viability, T/C [25]: 103%; viability, T/C [26]: 92.6%; viability, T/C [27]: 93.1%; viability, T/C [28]: 88.4%; viability, T/C [29]: 86.3%; viability, T/C [30]: 88%
CC1COCCN1c1cc(-c2ccnn2C)c2ccnc(-c3ccn[nH]3)c2n1 (stereo not given) + NC1CC1c1ccc(-c2cccc(O)c2)cc1 | 368 | 176 | 96.1 | 212 | 168 | 72.5 | 57.1 | 49.8 | 43.2 | 71.4 | 55.4 | 45.4 | 38.4 | 65.5 | 51 | 51.4 | 45.9 | 70.9 | 56.1 | 47.7 | viability, T/C [31]: 79.2%; viability, T/C [32]: 74.4%; viability, T/C [33]: 72.4%; viability, T/C [34]: 78.7%; viability, T/C [35]: 85.6%; viability, T/C [36]: 87.6%; viability, T/C [37]: 86.6%; viability, T/C [38]: 83.5%; viability, T/C [22]: 41.5%; viability, T/C [39]: 89.4%; viability, T/C [40]: 81.2%; viability, T/C [25]: 79.3%; viability, T/C [26]: 55.2%; viability, T/C [27]: 43.5%; viability, T/C [28]: 40.9%
COc1ccc([C@@H](O)c2cc(-c3ncnc4cc(N5CCOCC5)ccc34)c(F)cc2Cl)nn1 + NC1CC1c1ccc(-c2cccc(O)c2)cc1 | > 10000 | > 10000 | > 10000 | > 10000 | 6480 | 106 | 98.6 | 79.1 | 68.4 | 92 | 90 | 82.7 | 71 | 102 | 94.7 | 90 | 69.4 | 94.9 | 105 | 90.8 | viability, T/C [5]: 64.2%; viability, T/C [6]: 52%; viability, T/C [11]: 60.7%; viability, T/C [12]: 50%; viability, T/C [17]: 62.2%; viability, T/C [18]: 50.1%; viability, T/C [22]: 68.2%; viability, T/C [23]: 59.9%; viability, T/C [24]: 48.2%; viability, T/C [25]: 103%; viability, T/C [26]: 100%; viability, T/C [27]: 86.2%; viability, T/C [28]: 72.8%; viability, T/C [29]: 59.2%; viability, T/C [30]: 44.7%
Nc1ncn(C2CC(O)C(CO)O2)c(=O)n1 (stereo not given) + NC1CCC(NC2CC2c2ccccc2)CC1 | > 1000 | > 1000 | > 1000 | > 1000 | > 1000 | 96.1 | 92.5 | 93.3 | 93 | 114 | 96.7 | 96.9 | 99.3 | 94.9 | 88.5 | 93.8 | 101 | 99.2 | 89.6 | 87.1 | viability, T/C [31]: 94.3%; viability, T/C [32]: 96.1%; viability, T/C [33]: 91%; viability, T/C [34]: 97.4%; viability, T/C [35]: 87.8%; viability, T/C [36]: 94.9%; viability, T/C [37]: 94.5%; viability, T/C [38]: 95.8%; viability, T/C [22]: 91.2%; viability, T/C [39]: 91.2%; viability, T/C [40]: 94.8%; viability, T/C [25]: 91.2%; viability, T/C [26]: 87.5%; viability, T/C [27]: 92.9%; viability, T/C [28]: 91.3%
